# Like-named read-outs stand apart in the source and are kept apart here.
# How the values were obtained:
# [1] = target: hERG channel (Homo sapiens, UniProt Q12809); assay: whole-cell voltage-clamp tail current / current density experiments in hERG-HEK cells
# Experimental: A set of whole-cell, voltage-clamp experiments was performed using a HEKA® EPC 9 amplifier. Data was recorded and analyzed using the HEKA® Patchmaster and Fitmaster software. At the time of the recordings, cell culture media was replaced by a bath solution (containing (mM): 137 NaCl, 4 KCl, 1.8 CaCl2, 10 HEPES, and 10 glucose, pH adjusted to 7.4 with NaOH). The pipette solution containing different concentrations of the drug to test was introduced. Borosilicate glass electrodes (tip resistant 2-5 MΩ) were filled with internal solution (containing (mM): 130 KCl, 1 MgCl2, 5 EGTA, 5 MgATP and 10 HEPES, pH adjusted to 7.2 with KOH). Tail currents were measured at repolarizing test potentials (−100 to +40 mV, 4 seconds each) following a one second depolarizing step to +60 mV from a holding potential of −80 mV. Cell recordings were performed in a minimum of 2 plates (3-5 cells/plate) for each EFV concentration and compared to control.
# In hERG-HEK cells that were transiently […] with CYP2B6*1 cDNA, tail current recordings were performed using the following 2-sweep voltage clamp protocol: membrane potential was held at −80 mV, increased to 60 mV (1 second), and currents were measured during two repolarizing steps at −100 and −20 mV (5 seconds each). This protocol was performed twice for each cell at 1 and 2 minutes following cytosolic access and exposure to the pipette solution to evaluate the influence of incubation time on drug mediated alterations in hERG channel conductivity. A sigmoidal Emax model was fit to the EFV inhibitory effect on 1hERG using Prism (GraphPad Software, Inc., La Jolla, Calif.).
# Sotalol ester, soestolol (ester A, Table 1, Example 1) and its corresponding acid (ester C) were evaluated. The studies were performed blinded with the operator unaware of the chemical structure of Ester A or Ester C.
# [2] = cited from earlier work
# hERG channel, sequence (Q12809 whole entry): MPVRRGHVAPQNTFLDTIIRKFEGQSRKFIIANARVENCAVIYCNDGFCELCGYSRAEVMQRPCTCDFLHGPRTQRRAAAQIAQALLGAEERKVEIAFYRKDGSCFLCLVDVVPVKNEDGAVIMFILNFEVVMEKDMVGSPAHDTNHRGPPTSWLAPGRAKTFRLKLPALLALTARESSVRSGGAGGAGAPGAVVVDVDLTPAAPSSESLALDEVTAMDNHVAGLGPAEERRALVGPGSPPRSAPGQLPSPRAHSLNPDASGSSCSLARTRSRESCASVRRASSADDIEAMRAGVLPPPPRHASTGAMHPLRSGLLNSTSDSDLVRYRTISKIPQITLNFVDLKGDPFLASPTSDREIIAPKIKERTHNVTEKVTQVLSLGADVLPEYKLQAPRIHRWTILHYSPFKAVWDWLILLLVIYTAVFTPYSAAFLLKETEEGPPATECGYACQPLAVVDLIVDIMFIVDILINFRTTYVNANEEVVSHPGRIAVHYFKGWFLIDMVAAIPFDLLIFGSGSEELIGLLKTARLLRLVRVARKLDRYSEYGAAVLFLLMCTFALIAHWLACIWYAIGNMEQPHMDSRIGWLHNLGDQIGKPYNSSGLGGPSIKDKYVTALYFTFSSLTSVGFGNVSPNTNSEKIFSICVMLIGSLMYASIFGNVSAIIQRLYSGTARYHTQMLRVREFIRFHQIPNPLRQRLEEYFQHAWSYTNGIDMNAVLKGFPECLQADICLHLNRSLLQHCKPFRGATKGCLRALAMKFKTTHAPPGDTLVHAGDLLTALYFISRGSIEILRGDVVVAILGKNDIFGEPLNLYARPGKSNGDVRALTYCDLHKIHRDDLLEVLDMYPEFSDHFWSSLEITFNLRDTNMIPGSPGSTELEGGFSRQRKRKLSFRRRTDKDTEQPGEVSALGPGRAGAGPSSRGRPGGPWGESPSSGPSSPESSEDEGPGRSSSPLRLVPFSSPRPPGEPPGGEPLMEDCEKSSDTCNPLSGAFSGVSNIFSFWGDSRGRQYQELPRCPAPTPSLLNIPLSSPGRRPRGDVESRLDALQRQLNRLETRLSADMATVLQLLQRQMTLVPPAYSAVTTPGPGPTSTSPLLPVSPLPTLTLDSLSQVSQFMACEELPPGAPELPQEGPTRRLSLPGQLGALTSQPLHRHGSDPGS
structure (smiles),measurement,setting,value
CC(C)NCC(O)c1ccc(NS(=O)(=O)CC(=O)O)cc1 (stereo not drawn) [Ester C],"activity on current, FIG. 2",[1],no activity
COC(=O)CS(=O)(=O)Nc1ccc(C(O)CNC(C)C)cc1 (stereo not drawn) [Ester A],"inhibition of K current (current density), FIG. 1",[1],dose dependent reduction in current
same,"potency on K current compared with sotalol, FIG. 1",[1],significantly more potent than the corresponding sotalol dose
CC(C)NCC(O)c1ccc(NS(C)(=O)=O)cc1 (stereo not drawn) [sotalol],"reduction in current, FIG. 2",[1]; 5 μM,dose related reduction in current
same,"reduction in current, FIG. 2",[1]; 50 μM,dose related reduction in current
same,"inhibition of K current (current density), FIG. 1",[1]; 5 μm,reduction in current
same,"inhibition of K current (current density), FIG. 1",[1]; 10 μm,further reduction
same,half-life,"[2]; in man, on average",twelve
same,terminal elimination half-life,[2]; in vivo,10 to 20 h

# From patent US10793519B2, “Ultra short acting anti-arrhythmic agents” (Academic Pharmaceuticals Incorporated, priority 2018, dated 2020)
